The results in this text go back to patent publication US9018173B2, “Materials and methods for suppressing inflammatory and neuropathic pain” (Indiana University Research and Technology Corp., priority 2010, dated 2015).

Read-outs that look alike come from different tables or passages of the source. Residues, ends and D or L forms follow the SMILES beside them.

Series [1] concerns dorsal root ganglion neurons. The following applies: 10 μM, 12 h.
Series [2] relates to depression/despair-associated behavior. Nature of the series: Tail suspension test (TST). The class given is in vivo, C57BL6 mice. The following applies: for Tail Suspension Test: Active: C57BL6 mice, 1 h after injection, 5 min test. The procedure: The light-dark box test and the elevated plus maze were used as measures of anxiety-associated behaviors. The tail suspension test was performed to evaluate despair- and depression-associated behavior.
Depression/Despair-behavior testing. Since rodents such as mice and rats display immobile postures when placed in inescapable stressful situations, immobility behavior in the tail suspension test (TST) or forced swim test (FST) is used as a measure of “depression” or “despair”-associated behavior. Furthermore, administering antidepressant treatments prior to testing reduces immobility behavior. Therefore TST and FST are often used to screen novel drugs for depressant or anti-depressant properties.
Tail suspension test as a measure of depression-associated behavior. Immediately following the EPM test, the TST was conducted according to standard procedure between 8:00 AM and 2:00 PM. Cryan, J. F., Mombereau, C., & Vassout, A. The tail suspension test as a model for assessing antidepressant activity: review of pharmacological and genetic studies in mice. Neurosci. Biobehay. Rev. 29, 571-625 (2005). Briefly, each mouse was suspended by the tail at a height of 40 cm by taping the rail to a horizontal bar so that the tail is vertical to the bar. Behavior was video recorded for 5 min and later analyzed by an experimenter, whom was blind to the treatments. […] If a mouse climbed its tail the mouse was gently pulled back down and the trial continued. Mice that climbed their tails for more than 20% of the trial (i.e. >60 seconds) were eliminated from the final analysis. Duration and frequency of immobility was the main parameters measured. Mice injected with the scrambled control peptide were immobile approximately 26% of the TST duration which is equivalent to baseline immobility durations (approximately 27%) observed in C57B16 mice in another recent study.

In series [3] the test system is capsaicin-evoked nocifensive behavior. Nature of the series: Capsaicin eye-wipe test. The class given is in vivo, rat. The following applies: peptide alone. On the procedure:
Referring now to FIG. 16. TAT-CBD3 reduces acute, inflammatory and neuropathic pain. (FIG. 16A) Time course of number of flinches following subcutaneous (dorsal surface of paw) injection of formalin (2.5%; 50 μl saline) in animals pretreated with peptides (3-100 μM; 20 μl dorsal surface of paw) 30 min before formalin (n=4-10). (FIG. 16B) The effect of peptides on number of flinches on formalin-induced phase 1 (0-10 min) and phase 2 (15-60 min). *, p<0.05 versus formalin-injected animals. (FIG. 16C) Formalin induces paw edema. Paw thickness was measured 1 h after injection of saline, formalin, and formalin+peptides (100 μM). *, p<0.05 versus saline-injected animals. (FIG. 16D) Pretreatment with TAT-CBD3 attenuates capsaicin-evoked nocifensive behavior. […]
Eye-wipe test. […] TAT CBD3 peptide, TAT control peptide or vehicle was pipetted directly into the right eye in a volume of 40 μl and the resulting nocifensive behavior was measured. […] This nocifensive behavior was recorded for five minutes and followed by capsaicin (3 μM in 40 μl saline) application into the pretreated eye. Nocifensive behavior was again quantified for 5 minutes following capsaicin application, as described previously. […] Significant differences between groups were assessed by two-way analysis of variance with Bonferroni post-tests. Data were analyzed with GraphPad Prism 4.0 (GraphPad, San Diego, Calif., USA). […]

Series [4] deals with T1, interaction between tubulin and CRMP-2 (Rattus norvegicus, UniProt P47942).
T1 construct: from tissue; host or cells: rat brain / spinal cord lysates (tubulin)
Nature of the series: Immunoprecipitation of CRMP-2/tubulin in the presence of peptides. In kind it is binding. The following applies: spinal cord lysates.

On to `CC(C)C[C@H](NC(=O)CNC(=O)[C@H](CCCNC(=N)N)NC(=O)[C@@H]1CCCN1C(=O)[C@@H](NC(=O)CNC(=O)[C@H](CCCNC(=N)N)NC(=O)[C@H](CC(C)C)NC(=O)[C@H](CCC(=O)O)NC(=O)[C@H](C)NC(=O)[C@H](CC(C)C)NC(=O)[C@H](CCCNC(=N)N)NC(=O)[C@H](CO)NC(=O)[C@H](CCCNC(=N)N)NC(=O)[C@H](C)NC(=O)[C@H](CCCNC(=N)N)NC(=O)[C@H](CCCNC(=N)N)NC(=O)[C@H](CCCNC(=N)N)NC(=O)[C@H](CCC(N)=O)NC(=O)[C@H](CCCNC(=N)N)NC(=O)[C@H](CCCNC(=N)N)NC(=O)[C@H](CCCCN)NC(=O)[C@H](CCCCN)NC(=O)[C@H](CCCNC(=N)N)NC(=O)CNC(=O)[C@@H](N)Cc1ccc(O)cc1)C(C)C)C(=O)O` [TAT-CBD3] (H-YGRKKRRQRRRARSRLAELRGVPRGL-OH; N-terminus and C-terminus assumed), for which the “cell viability (MTT, absorbance at 490 nm)” value is given as “without affecting cell viability” in series [1] and “does not affect cell viability” in series [1] (listed as TAT CBD3). Also, the “Tail Suspension Test: Active” value in series [2] (0.1 mg/kg i.p.) turned out to be 238.1 ± 13.6 s; in series [2] (1 mg/kg i.p.), 235.2 ± 13.0 s; in series [2] (10 mg/kg i.p.), 239.7 ± 10.9 s. Further, the “TST time spent immobile and frequency of immobile episodes” value in series [2] (any dose, compared to TAT-Scramble) is reported as “neither time spent immobile, nor frequencies of immobile episodes were altered”. In addition, the “nocifensive behavior on application alone to the cornea” value in series [3] is given as “did not induce nocifensive behavior”.
Regarding ARSRLAELRGVPRGL (CBD3), the “interaction between tubulin and CRMP-2 (immunoprecipitation)” value in series [4] is “did not affect”.
